Data taken from patent US20230114264A1, “ACTIVATION OF LYTIC GENES IN CANCER CELLS” (priority 2020, published 2023).

Columns and labels:
[1] = system: EBV lytic genes; assay: EBV lytic gene induction in DOX-induced SNU-719 dCas9-Tet-on-PUFa-p65HSF1 gRNA cells; assay type: cell-based, Epstein-Barr virus (EBV)
Source text: SNU-719 and C666-1 cancer cells stably expressing HA-dCas9-EGFP and BZLF1 gRNA (A5) were modified to inducibly express 3×FLAG-PUFa-p65HSF1 using a Tetracycline response element (Tet-On). […] This reactivation of EBV slows the growth rate of cells by greater than 4 fold compared with cells treated with ganciclovir (GCV) alone, a current standard treatment for EBV infection (FIGS. 3B, 6A, 8H-8I). Further, treatment with BZLF1 gRNA (A5) decreases C666-1 cell viability by 50-70% relative to control (FIG. 6B).
Producing Tet-on PUFa-p65HSF1 cell line. SNU-719 or C666-1 cells stably expressing HA-dCas9-EGFP were seeded into a 60 mm culture dish at 70% density. The cells were transfected with 1 μg hyPBase (transposase) and 2 μg dox-inducible PUFa-p65HSF1 in a piggyBac vector plasmid through Lipofectamine 2000 reagent (Invitrogen). At 6 hours post-transfection, cell culture medium was exchanged. At 48 hours post-transfection, cells were selected with hygromycin antibiotics.
Producing Tet-on PUFa-p65HSF1 and BZLF1 gRNA (3) cell line. The day prior to transfection, HEK-293FT cells were seeded into a 10 cm culture dish at 70% density. […]. At 6 hours post-transfection, medium was exchanged for fresh. At 48 hours post-transfection, 5 mL of medium containing the lentivirus was collected and centrifuged for 10 minutes at 2,000 rpm to remove cellular debris. The supernatant was filtered through a 0.45-micron filter (Millipore), and the lentivirus was collected. SNU-719 dCas9-Tet-on-PUFa-p65HSF1 or C666-1 dCas9-Tet-on-PUFa-p65HSF1 cells were seeded into a 10 cm culture dish at 60% density per dish, transduced with 7 mL of the BZLF1 gRNA (A5) lentivirus in culture medium supplemented with 8 μg/mL polybrene for 48 hours, and subsequently selected with Puromycin antibiotics on the third day post-transduction.
RNA in-situ hybridization ISH (RNAscope®). Doxycycline (DOX) treated or untreated SNU-719 HA-dCas9-EGFP-Tet-on-PUFa-p65HSF1-BZLF1 gRNA (A5) cells or C666-1-HA-dCas9-Tet-on-PUFa-p65HSF1-BZLF1 gRNA (A5) cells were incubated for 48 hours. […]

[2] = system: C666-1 cells; assay: Growth proliferation, viability, apoptosis, cell cycle and clonogenic assays in C666-1 cells; assay type: cell-based
Description: Growth proliferation assay. SNU-719 HA-dCas9-Tet-on-PUFa-p65HSF1-BZLF1 gRNA (3) or C666-1 HA-dCas9-Tet-on-PUFa-p65HSF1-BZLF1 gRNA (A5) cells were seeded into individual wells of a 96-well plate for at 1×10^5 cells per well the day before being treated with 1 μg/mL DOX and Ganciclovir (GCV). Cells were counted with the cell counting kit-8 (CCK-8, Sigma) at day 6, day 7, and day 8 (FIGS. 8H-8I).
Active caspase-3 analysis. To detect the apoptosis in DOX treated dCas9-Tet on-p65HSF1-BZLF1sgRNA3 SNU719 and C17 cells, active caspase-3 apoptosis kit (BD Pharmingen #550914) was used. Untreated and treated cells were trypsinized and then fixed with fixation buffer in ice for 20 mins and washed with washing buffer twice. Cells were then stained with the PE conjugated rabbit anti active caspase-3 antibody in dark for 30 mins. Stained cells were collected with BD LSRFortessa.
Cell cycle analysis. After 96 hours from induction of DOX, dCas9-Tet on-p65HSF1-BZLF1sgRNA3 SNU719 and C17 cells were trypsinized and then fixed with 75% cold ethanol for 2 hrs at −20° C. Cells were washed three times with cold PBS and then resuspended in PBS containing 100 μg/mL RNase A and 10 μg/mL propidium iodide for 10 min at room temperature. Stained cells were collected with BD LSRFortessa.
Clonogenic assays. Cells were seeded at a density of 500 cells/well in 6-well plates the day before treatment. Then cells were stained with 0.5% crystal violet 14 days after treatment, and at least 50 cells were considered as a single colony

BZLF1 gRNA (A5): BZLF1 gRNA spacer sequence SEQ ID NO: 10, GAAACTATGCATGAGCCAC (chemistry not given here)
expression of other EBV lytic genes including BRLF1 (Rta), BGLF4 (PK), BFRF3 (VCAp18), BMRF1, BdRF1 and BLLF1 ([1]; 1 μg/mL DOX): induces the expression of other EBV lytic genes | BZLF1 (Zta) reactivation ([1]; 1 μg/mL Doxycycline (DOX), Example 10): reactivated BZLF1 (Zta) | induction of the BZLF1, BGLF4, BMRF1, and BFRF3 (VCAp18) EBV lytic genes ([1]; 3×FLAG-PUFa-p65HSF1 induced with 1 μg/mL Doxycycline): reactivated EBV | cell cycle by flow cytometry ([2]; DOX induced, FIG. 17B): sub G1 phase accumulation and S phase decrease | cell proliferation, apoptosis and growth of cells in vitro ([2]; DOX-induced EBV reactivation): suppressed the cell proliferation, induced apoptosis, and slowed the growth of cells | slowing of growth rate of cells compared with cells treated with ganciclovir (GCV) alone ([2]; EBV reactivation, FIGS. 3B, 6A, 8H): greater than 4 fold | decrease of C666-1 cell viability relative to control ([2]; FIG. 6B, 120 hours following treatment): 50-70% | monolayer colony formation ([2]; after DOX induction, FIG. 17E): dramatic suppression
